# Literature values, collected in patent US7115654B2, “Caspase-1 inhibitors and methods for their use” (Sunesis Pharmaceuticals, Inc., priority 2002, dated 2006).
# Tested on: embryonic nigral cell suspension
substance,measurement,setting,value
Ac-YVAD-cmk,functional recovery,hemiparkinsonian rats,substantially improved
same,survival of dopaminergic neurons,neurons grafted to hemiparkinsonian rats,increased
same,apoptosis in transplants,treatment of the embryonic nigral cell suspension,reduced
same,DNA fragmentation,"treatment of the embryonic nigral cell suspension, in transplants",mitigated
